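Briefly, cells in 96-well plates were exposed to five compound concentrations for 48 h, and endpoints were estimated by linear interpolation. GI50: concentration for 50% inhibition of growth. TGI: concentration producing complete growth inhibition.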
How the values were obtained:
Assay in all cases: inhibition of tumour cell growth, NCI panel, 48 h
T-47D breast = system: T-47D breast
TK-10 renal = system: TK-10 renal
SN12C renal = system: SN12C renal
A498 renal = system: A498 renal
HOP-92 NSCLC = system: HOP-92 NSCLC
EKVX NSCLC = system: EKVX NSCLC
SW-620 colon = system: SW-620 colon
NCI/ADR-RES ovarian = system: NCI/ADR-RES ovarian
SK-OV-3 ovarian = system: SK-OV-3 ovarian
HL-60(TB) leukemia = system: HL-60(TB) leukemia

SMILES | GI50 (T-47D breast) | TGI (T-47D breast) | GI50 (TK-10 renal) | TGI (TK-10 renal) | GI50 (SN12C renal) | TGI (SN12C renal) | GI50 (A498 renal) | TGI (A498 renal) | GI50 (HOP-92 NSCLC) | TGI (HOP-92 NSCLC) | GI50 (EKVX NSCLC) | TGI (EKVX NSCLC) | GI50 (SW-620 colon) | TGI (SW-620 colon) | GI50 (NCI/ADR-RES ovarian) | TGI (NCI/ADR-RES ovarian) | GI50 (SK-OV-3 ovarian) | TGI (SK-OV-3 ovarian) | TGI (HL-60(TB) leukemia) | GI50 (HL-60(TB) leukemia)
Nc1nc(-n2c(-c3ccccc3)nc3c(Br)cc(Br)cc3c2=O)nnc1-c1cccc(Cl)c1Cl | > 100 µM | > 100 µM | 3.96 µM | 20.8 µM | 18.8 µM | > 100 µM | 15.4 µM | 56.5 µM | 38.5 µM | > 100 µM | 20.2 µM | > 100 µM | 5.15 µM | > 100 µM | 2.01 µM | 6.88 µM | 27.2 µM | > 100 µM | – | –
O=C(CCNC12CC3CC(CC(C3)C1)C2)c1ccccc1 | – | 55.4 µM | – | 39.6 µM | – | 36.3 µM | – | 62.9 µM | – | 64.2 µM | – | – | – | 35.6 µM | – | 59.8 µM | – | – | 28.1 µM | –
OCCN(CCO)c1ncnc2c1ncn2Cc1ccc(CCl)cc1 | 19.4 µM | 36.5 µM | 17.1 µM | 33.4 µM | 21 µM | 45.8 µM | 14.2 µM | 28.1 µM | 16.4 µM | 31.7 µM | 16.6 µM | 31.8 µM | 10.8 µM | 27.3 µM | 24.7 µM | 74.1 µM | – | – | – | –
CC1CCc2nc[nH]c(=O)c21 (stereo not drawn) | > 100 µM | > 100 µM | > 100 µM | > 100 µM | > 100 µM | > 100 µM | > 100 µM | > 100 µM | > 100 µM | > 100 µM | – | – | > 100 µM | > 100 µM | > 100 µM | > 100 µM | > 100 µM | > 100 µM | > 100 µM | > 100 µM
COC(=O)/C=C1\S/C(=N\NC(=O)c2cc3ccc2/C=C\c2ccc(cc2)/C=C\3)N(c2ccccc2)C1=O | 1.54 µM | 3.65 µM | 2.03 µM | 5.6 µM | 2.27 µM | 5.94 µM | – | – | 1.91 µM | 9.14 µM | 1.91 µM | 4.23 µM | 1.85 µM | 3.66 µM | 2.92 µM | 10.6 µM | 3.55 µM | 75.3 µM | > 100 µM | 2.7 µM
Cn1cc(C2=C(c3c4n(c5ccccc35)CCCCC4)C(=O)NC2=O)c2ccccc21 | 8.64 µM | > 25 µM | 6.38 µM | > 25 µM | 9.88 µM | > 25 µM | 1.05 µM | 19.4 µM | 1.48 µM | > 25 µM | – | – | 2.19 µM | > 25 µM | 2.17 µM | > 25 µM | 7.11 µM | > 25 µM | 16.2 µM | 1.39 µM
COC1/C=C/OC2(C)Oc3c(C)c(O)c4c(O)c(c(/C=N/Nc5ccc([N+](=O)[O-])cc5[N+](=O)[O-])c(O)c4c3C2=O)NC(=O)C(C)=C/C=C/C(C)C(O)C(C)C(O)C(C)C(OC(C)=O)C1C (stereo not drawn) | 2.07 µM | > 50 µM | – | – | 10.2 µM | > 50 µM | 6.87 µM | 14 µM | 0.885 µM | 2.04 µM | 4.75 µM | > 50 µM | 1.19 µM | 2.96 µM | 22.2 µM | > 50 µM | 10.6 µM | 31.1 µM | – | –
CN1CCCCC1CCN1c2ccccc2Sc2ccc(Cl)cc21 (stereo not drawn) | 4.25 µM | 18.8 µM | 2.27 µM | 7.09 µM | 3.65 µM | 13.9 µM | 2.7 µM | 10.8 µM | 1.35 µM | 5.18 µM | – | – | 2.87 µM | 10.1 µM | 2.89 µM | 7.62 µM | 3.69 µM | 13.7 µM | 6.05 µM | 2.66 µM
Cc1nc2sccn2c1-c1csc(Nc2ccccc2Cl)n1 | 2.33 µM | 66.5 µM | 4.44 µM | 48.8 µM | 3.58 µM | > 100 µM | 1.24 µM | 12.7 µM | 0.798 µM | 7.08 µM | – | – | 3.22 µM | 25.9 µM | 2.61 µM | 14.5 µM | 8.4 µM | 75.2 µM | 29.2 µM | 3 µM
OCc1cc2ccccc2c2c3c(ccc12)OCO3 | 24.1 µM | 81.5 µM | 31.2 µM | 79.1 µM | 29.1 µM | 141 µM | 13.1 µM | 39.5 µM | 14.7 µM | 58.2 µM | – | – | 29 µM | 118 µM | 29.6 µM | 126 µM | 32 µM | 96.6 µM | 66.2 µM | 23.7 µM
FC(F)(F)c1cccc(Nc2nc(-c3ccccc3)nc3ncccc23)c1 | 3.53 µM | 15.2 µM | 2.61 µM | 10.5 µM | 5 µM | 64.3 µM | 1.7 µM | 5.21 µM | 4.65 µM | 18 µM | – | – | 5.2 µM | 24.7 µM | 4.07 µM | 23.5 µM | 11 µM | 24 µM | 6.93 µM | 2.51 µM
CCN(CC)N=Nc1c(C(N)=O)n[nH]c1C | – | > 100 µM | – | > 100 µM | – | > 100 µM | – | > 100 µM | – | 87.8 µM | – | > 100 µM | – | > 100 µM | – | > 100 µM | – | 97.9 µM | – | –
